# Assay results taken from article PMC6009935 (Journal of Enzyme Inhibition and Medicinal Chemistry, 2017).
# Like-named read-outs stand apart in the source and are kept apart here.
# System: G-protein
# Assay: Functional [35S]GTPγS binding assay on rat brain membrane homogenates
# Assay type: biochemical
# Experimental: The experiments were performed by [35S]GTPγS binding assays to control the GDP to GTP exchange of the α-subunit of Gi-protein. […] We examined the opioid receptor binding affinity of 5 in competition binding experiments, using opioid receptor selective radioligands. […]
# Functional [35S]GTPγS binding experiments
# The functional [35S]GTPγS binding experiments were performed as previously described,5,6 with modifications. Briefly the rat brain membrane homogenates containing ~10 µg/mL protein were incubated at 30 °C for 60 min in Tris-EGTA buffer (pH 7.4) composed of 50 mM Tris-HCl, 1 mM EGTA, 3 mM MgCl2, 100 mM NaCl, containing 20 MBq/0.05 cm3 [35S]GTPγS (0.05 nM) and […]
# compound 9 together with excess GDP (30 µM) in a final volume of 1 mL. Total binding was measured in the absence of test compounds, non-specific binding was determined in the presence of 10 µM unlabelled GTPγS. The bound and unbound [35S]GTPγS was separated as described in the […]
# competition binding assays section through Whatmann GF/B glass fibers. The radioactivity of the filters was also detected as described above. [35S]GTPγS binding experiments were performed in triplicates and repeated at least three times.
# The specific binding of all radiolabeled compounds was calculated by the subtraction of non-specific binding from total binding and was given in percentage. The data was normalized to total specific binding, which was settled 100%, which in case of [35S]GTPγS also represents the basal activity of the G-protein. Experimental data were presented as means ± S.E.M in the function of the applied ligand concentration range in logarithm form. Points were fitted with the professional curve fitting program, GraphPad Prism 5.0 (GraphPad Prism Software Inc., San Diego, CA), using non-linear regression. In the radioligand competition binding assays the ‘One-site competition’, while in [35S]GTPγS binding assays the ‘Sigmoid dose-response’ equation was applied to determine IC50 (unlabeled ligand affinity) and the maximum G-protein efficacy (Emax) and ligand potency (EC50), respectively. For IC50 and EC50 values standard error is only given in their logarithm form by the curve fitting program due to the data representation. In competition binding experiments the Ki value was calculated according to Cheng-Prusoff equation.7 […]
# binding assays. In figure B, 5 is indicated again for better comparison. Figures represents the specific binding of [35S]GTPγS in percentage in the presence of increasing concentrations (10-10-10-5 M) of the indicated ligands in rat brain membrane homogenates. “Basal” on the x-axis indicates the basal activity of the monitored G-protein, which is measured in the absence of the compounds and also represents the total specific binding of [35S]GTPγS. The level of basal activity was defined as 100% and is presented with a dotted line. Points represent means ± S.E.M. for at least three experiments performed in triplicate.
# [1] = rat brain membrane homogenates, basal activity = 100%
# [2] = rat brain membrane homogenates, logarithm of EC50, negative sign printed
Compound,Emax ± S.E.M. (maximal G-protein efficacy) [1] [%],LogEC50 ± S.E.M. (ligand potency) [2],"agonist, antagonist or inverse agonist nature",EC50 (rat brain membrane homogenates) [µM],EC50 [µM],Emax ± S.E.M. (maximal G-protein efficacy) [%],LogEC50 ± S.E.M. (ligand potency),maximum efficacy (Emax) above basal activity [%]
Cc1c(C(=O)NC2CCNCC2)nn(-c2ccc(Cl)cc2Cl)c1-n1cccc1 [Compound 5],99.2 ± 46.1,ambiguous ^*,,,,,,
Cc1c(C(=O)NC2CCN(C(=O)[C@H](Cc3ccccc3)NC(=O)CNC(=O)[C@@H](C)NC(=O)[C@@H](N)Cc3ccc(O)cc3)CC2)nn(-c2ccc(Cl)cc2Cl)c1-n1cccc1 [Compound 9],36.62 ± 10.35,−5.44 ± 0.21,inverse agonist,3.6,,,,
"C[C@@H](NC(=O)[C@@H](N)Cc1ccc(O)cc1)C(=O)NCC(=O)N[C@@H](Cc1ccccc1)C(N)=O [Compound 10, Tyr-D-Ala-Gly-Phe-NH2, reference compound]",,,agonist,,0.0813,161.5 ± 4.08,−7.09 ± 0.22 (81.3 nM),~70
